Test system: primary human dermal fibroblasts
Test: Fibroblast monolayer scratch assay, human
Format: cell-based
Conditions: 10^−10 M to 10^−6 M, three female donors, compared with E2
Description: Human skin was transferred to the laboratory in holding media (DMEM containing 4% penicillin-streptomycin and Amphotericin B solution) within 30 minutes of collection. Once defatted, the skin was rinsed in HBSS with 4% PSA followed by DPBS without antibiotics, then cut into thin strips and floated on 0.2% Dispase II in DPBS overnight at 4° C., followed by manual separation of the epidermis from the dermis. Primary human epidermal keratinocytes and primary human dermal fibroblasts were then isolated.
Confluent wells of both primary keratinocytes and fibroblasts were subjected to a highly validated scratch wounding procedure (using a 1 mL sterile filter tip). Post-scratching, cells were rinsed with DPBS and cell-specific media containing treatments added to each well. Cells were imaged on a ptychographic live cell imaging platform (Livecyte 2TM, Phasefocus) for 24-48 hours. Automated tracking of individual unlabeled cells will be combined with 3D cell measurements to quantify a range of wound-relevant cell parameters including scratch closure rate.
Dose range finding experiments were conducted with E4 (10^−10M to 10^−6M) and E2 with and without Mitomycin C (MMC, to inhibit proliferation) using vehicle as negative controls. […]

Compound: C[C@]12CC[C@@H]3c4ccc(O)cc4CC[C@H]3[C@@H]1[C@@H](O)[C@@H](O)[C@@H]2O [E4, 1,3,5 (10)-estratrien-3,15alpha,16alpha,17beta-tetrol]
- in vitro wound closure, human fibroblasts scratch assay: promotes in vitro wound closure to a similar extent as E2

Reference: US20250099485A1, “COMPOSITIONS FOR PROMOTING HAIR GROWTH” (ESTETRA SRL, priority 2021, published 2025)
